In ChEMBL document CHEMBL5360532, “Current scenario of quinolone hybrids with potential antibacterial activity against ESKAPE pathogens” (Eur J Med Chem, 2023):
Values after ≈ are worked out from the molar mass of the structure shown.

Columns and labels:
Type in all cases: functional
Staphylococcus aureus [1] = experiment: Antibacterial activity against Staphylococcus aureus assessed as bacterial growth inhibition by broth microdilution assay
Pseudomonas aeruginosa [2] = experiment: Antibacterial activity against Pseudomonas aeruginosa assessed as bacterial growth inhibition by broth microdilution assay
Escherichia coli [3] = experiment: Antibacterial activity against Escherichia coli assessed as bacterial growth inhibition by broth microdilution assay
Staphylococcus aureus [4] = experiment: Antibacterial activity against Staphylococcus aureus assessed as bacterial growth inhibition by two fold microdilution assay
Escherichia coli [5] = experiment: Antibacterial activity against Escherichia coli assessed as bacterial growth inhibition by two fold microdilution assay
Klebsiella pneumoniae [6] = experiment: Antibacterial activity against Klebsiella pneumoniae assessed as bacterial growth inhibition by two fold microdilution assay
Staphylococcus aureus [7] = experiment: Antibacterial activity against methicillin resistant Staphylococcus aureus ATCC 33591 assessed as bacterial growth inhibition measured after 16 to 18 hrs by serial dilution method; conditions: time 16-18 hrs
Escherichia coli [8] = experiment: Antibacterial activity against fluoroquinolone Escherichia coli assessed as bacterial growth inhibition by broth microdilution assay
Enterococcus faecalis = experiment: Antibacterial activity against Enterococcus faecalis assessed as bacterial growth inhibition by broth microdilution assay
Escherichia coli [9] = experiment: Antibacterial activity against Escherichia coli ATCC 8739 assessed as bacterial growth inhibition by two fold microdilution assay
Staphylococcus aureus [10] = experiment: Antibacterial activity against Staphylococcus aureus ATCC 6538P assessed as bacterial growth inhibition by two fold microdilution assay
Escherichia coli [11] = experiment: […] activity against Escherichia coli assessed as bacterial growth inhibition by broth dilution assay
Pseudomonas aeruginosa [12] = experiment: Antibacterial activity against Pseudomonas aeruginosa ATCC 11632 assessed as bacterial growth inhibition measured after 24 to 48 hrs by agar dilution assay; conditions: time 24-48 hrs
Escherichia coli [13] = experiment: Antibacterial activity against Escherichia coli ATCC 10536 assessed as bacterial growth inhibition measured after 24 to 48 hrs by agar dilution assay; conditions: time 24-48 hrs
Staphylococcus aureus [14] = experiment: Antibacterial activity against Staphylococcus aureus assessed as bacterial growth inhibition by agar cup diffusion assay
Staphylococcus aureus [15] = experiment: Potency index, ratio of ciprofloxacin MIC to test compound MIC for antimicrobial activity against Staphylococcus aureus assessed as bacterial growth inhibition by agar cup diffusion assay
Escherichia coli [16] = experiment: Antibacterial activity against Escherichia coli assessed as bacterial growth inhibition by agar cup diffusion assay
Pseudomonas aeruginosa [17] = experiment: Antibacterial activity against Pseudomonas aeruginosa assessed as bacterial growth inhibition by agar cup diffusion assay
Klebsiella pneumoniae [18] = experiment: Antibacterial activity against Klebsiella pneumoniae assessed as bacterial growth inhibition by agar cup diffusion assay
Escherichia coli [19] = experiment: Potency index, ratio of ciprofloxacin MIC to test compound MIC for antimicrobial activity against Escherichia coli assessed as bacterial growth inhibition by agar cup diffusion assay
Escherichia coli [20] = experiment: Antibacterial activity against Escherichia coli ATCC 25922 assessed as bacterial growth inhibition measured after 18 hrs by agar dilution assay
Staphylococcus aureus [21] = experiment: Antibacterial activity against Staphylococcus aureus ATCC 25923 assessed as bacterial growth inhibition measured after 18 hrs by agar dilution assay

**Q.** Which results are given for `CCn1cc(C(=O)O)c(=O)c2cc(F)c(N3CCN(Cn4nc(-c5ccncc5)oc4=S)CC3)cc21`?
**A.** MIC (Staphylococcus aureus [1]): ≤ 0.125 µg/mL; MIC (Pseudomonas aeruginosa [2]): ≤ 0.125 µg/mL; MIC (Escherichia coli [3]): ≤ 0.125 µg/mL

**Q.** With `CCn1cc(C(=O)O)c(=O)c2cc(F)c(N3CCN(Cn4nc(Cn5nc(C)n(/N=C/c6ccccc6O)c5=O)n(-c5ccccc5)c4=S)CC3)cc21` as the compound, how does the MIC (Staphylococcus aureus [4]) read?
**A.** Its MIC is < 28 µg/mL.

**Q.** What about the MIC (Escherichia coli [5]) of the same compound?
**A.** The MIC was < 0.24 µg/mL.

**Q.** What about the MIC (Klebsiella pneumoniae [6]) of the same compound?
**A.** Its MIC is < 0.24 µg/mL.

**Q.** How did the MIC (Staphylococcus aureus [7]) turn out when `Cc1ccc(-c2ccnc(Nc3ccc4c(=O)c(C(=O)O)cn(C5CC5)c4c3)n2)cc1` was run?
**A.** The MIC was 0.38 µg/mL (≈ 0.921 µM).

**Q.** `CCCCCCOc1ccc(C2C(Cl)C(=O)N2c2cc3[nH]cc(C(=O)O)c(=O)c3cc2F)cc1` (centres undefined) was tested. Which MIC (Escherichia coli [8]) did it give?
**A.** Its MIC is 0.02 µg/mL (≈ 0.0411 µM).

**Q.** And the MIC (Staphylococcus aureus [1])?
**A.** The MIC was 0.02 µg/mL (≈ 0.0411 µM).

**Q.** What about the MIC (Enterococcus faecalis) of the same compound?
**A.** Its MIC is 0.02 µg/mL (≈ 0.0411 µM).

**Q.** And the MIC (Escherichia coli [3])?
**A.** The MIC was 0.02 µg/mL (≈ 0.0411 µM).

**Q.** Which results are given for `Cc1nn(Cc2nn(CN3CCN(c4cc5c(cc4F)c(=O)c(C(=O)O)cn5C4CC4)CC3)c(=O)n2-c2ccccc2)c(=O)n1/N=C/c1ccccc1O`?
**A.** MIC (Staphylococcus aureus [4]): < 28 µg/mL; MIC (Escherichia coli [5]): < 0.24 µg/mL; MIC (Klebsiella pneumoniae [6]): < 0.24 µg/mL

**Q.** What does the source list for `CCn1cc(C(=O)O)c(=O)c2cc(F)c(N3CCN(Cn4nc(-c5cccs5)n(-c5ccc(OC)cc5)c4=S)CC3)cc21`?
**A.** MIC (Escherichia coli [9]): ≤ 0.125 µg/mL; MIC (Klebsiella pneumoniae [6]): ≤ 0.125 µg/mL; MIC (Staphylococcus aureus [10]): ≤ 0.125 µg/mL

**Q.** For `CCCc1nn(CN2CCN(c3ncc4c(=O)c(C(=O)O)cn(CC)c4n3)CC2)c(=S)n1-c1cccc(OC)c1`, which MIC (Escherichia coli [11]) is on record?
**A.** Its MIC is 0.98 µg/mL (≈ 1.74 µM).

**Q.** Which results are given for `Cc1nn(Cc2nn(CN3CCN(c4cc5c(cc4F)c(=O)c(C(=O)O)cn5C4CC4)CC3)c(=S)n2Cc2ccccc2)c(=O)n1/N=C/c1ccccc1O`?
**A.** MIC (Staphylococcus aureus [4]): < 28 µg/mL; MIC (Escherichia coli [5]): < 0.24 µg/mL; MIC (Klebsiella pneumoniae [6]): < 0.24 µg/mL

**Q.** What does the source list for `Cn1c(=O)c(C(=O)CNc2ccc(-c3nc4ccc(Cl)c(Cl)c4s3)cc2)c(O)c2ccccc21`?
**A.** MIC (Pseudomonas aeruginosa [12]): 0.5 µg/mL (≈ 0.98 µM); MIC (Escherichia coli [13]): 0.5 µg/mL (≈ 0.98 µM)

**Q.** Which results are given for `CCn1cc(C(=O)O)c(=O)c2cc(F)c(N3CCN(Cn4nc(Cn5nc(C)n(/N=C/c6ccccc6O)c5=O)n(Cc5ccccc5)c4=S)CC3)cc21`?
**A.** MIC (Staphylococcus aureus [4]): < 28 µg/mL; MIC (Escherichia coli [5]): < 0.24 µg/mL; MIC (Klebsiella pneumoniae [6]): < 0.24 µg/mL

**Q.** How did the MIC (Staphylococcus aureus [4]) turn out when `Cc1nn(Cc2nn(CN3CCN(c4cc5c(cc4F)c(=O)c(C(=O)O)cn5C4CC4)CC3)c(=S)n2-c2ccccc2)c(=O)n1/N=C/c1ccccc1O` was run?
**A.** Its MIC is < 28 µg/mL.

**Q.** What about the MIC (Escherichia coli [5]) of the same compound?
**A.** Its MIC is < 0.24 µg/mL.

**Q.** And the MIC (Klebsiella pneumoniae [6])?
**A.** Its MIC is < 0.24 µg/mL.

**Q.** Which MIC (Staphylococcus aureus [7]) does the source give for `Cc1ccc(Oc2ccnc(Nc3ccc4c(=O)c(C(=O)O)cn(C5CC5)c4c3)n2)cc1C` here?
**A.** The MIC was 0.38 µg/mL (≈ 0.859 µM).

**Q.** How did the MIC (Escherichia coli [9]) turn out when `CCn1cc(C(=O)O)c(=O)c2cc(F)c(N3CCN(Cn4nc(-c5ccccn5)n(-c5ccc(OC)cc5)c4=S)CC3)cc21` was run?
**A.** The MIC was ≤ 0.125 µg/mL.

**Q.** And the MIC (Klebsiella pneumoniae [6])?
**A.** Its MIC is ≤ 0.125 µg/mL.

**Q.** What about the MIC (Staphylococcus aureus [10]) of the same compound?
**A.** The MIC was ≤ 0.125 µg/mL.

**Q.** Which MIC (Escherichia coli [11]) does the source give for `CCCCc1nn(CN2CCN(c3ncc4c(=O)c(C(=O)O)cn(CC)c4n3)CC2)c(=S)n1-c1cccc(OC)c1` here?
**A.** The MIC was 0.98 µg/mL (≈ 1.69 µM).

**Q.** With `CCc1nn(CN2CCN(c3ncc4c(=O)c(C(=O)O)cn(CC)c4n3)CC2)c(=S)n1-c1cccc(OC)c1` as the compound, how does the MIC (Escherichia coli [11]) read?
**A.** Its MIC is 0.98 µg/mL (≈ 1.78 µM).

**Q.** How did the MIC (Escherichia coli [3]) turn out when `C[C@@H](N)C(=O)N1CCN(c2cc3c(cc2F)c(=O)c(C(=O)N2CCOCC2)cn3C2CC2)CC1` was run?
**A.** Its MIC is 0.4 µg/mL (≈ 0.848 µM).

**Q.** Which results are given for `CCn1cc(C(=O)O)c(=O)c2cc(F)c(N3CCN(Cn4nc(-c5cccnc5)oc4=S)CC3)cc21`?
**A.** MIC (Staphylococcus aureus [1]): ≤ 0.125 µg/mL; MIC (Pseudomonas aeruginosa [2]): ≤ 0.125 µg/mL; MIC (Escherichia coli [3]): ≤ 0.125 µg/mL

**Q.** Which MIC (Staphylococcus aureus [14]) does the source give for `O=C(CN1CCN(c2cc3c(cc2F)c(=O)c(C(=O)O)cn3C2CC2)CC1)Nc1nnc(-c2ccc(Cl)cc2)s1` here?
**A.** Its MIC is 1.12 µg/mL (≈ 1.92 µM).

**Q.** What about the Ratio (Staphylococcus aureus [15]) of the same compound?
**A.** The Ratio was 4.6.

**Q.** And the MIC (Escherichia coli [16])?
**A.** Its MIC is 1.12 µg/mL (≈ 1.92 µM).

**Q.** What about the MIC (Pseudomonas aeruginosa [17]) of the same compound?
**A.** Its MIC is 9.11 µg/mL (≈ 15.6 µM).

**Q.** What about the MIC (Klebsiella pneumoniae [18]) of the same compound?
**A.** Its MIC is 1.12 µg/mL (≈ 1.92 µM).

**Q.** What about the Ratio (Escherichia coli [19]) of the same compound?
**A.** Its Ratio is 4.6.

**Q.** `CC1(C)S[C@@H]2[C@H](NC(=O)[C@H](N)c3ccccc3)C(=O)N2[C@H]1C(=O)O` [AMPICILLIN] was tested. Which MIC (Pseudomonas aeruginosa [12]) did it give?
**A.** Its MIC is 0.5 µg/mL (≈ 1.43 µM).

**Q.** And the MIC (Escherichia coli [13])?
**A.** The MIC was 0.5 µg/mL (≈ 1.43 µM).

**Q.** Which results are given for `COc1c(N2CCNC(C)C2)c(F)cc2c(=O)c(C(=O)O)cn(C3CC3)c12` (centres undefined) [GATIFLOXACIN]?
**A.** MIC (Escherichia coli [8]): 0.66 µg/mL (≈ 1.76 µM); MIC (Pseudomonas aeruginosa [12]): 0.25 µg/mL (≈ 0.666 µM); MIC (Staphylococcus aureus [1]): 0.72 µg/mL (≈ 1.92 µM); MIC (Escherichia coli [13]): 0.25 µg/mL (≈ 0.666 µM); MIC (Enterococcus faecalis): 0.47 µg/mL (≈ 1.25 µM); MIC (Escherichia coli [3]): 0.66 µg/mL (≈ 1.76 µM)

**Q.** For `C[C@H]1COc2c(N3CCN(C)CC3)c(F)cc3c(=O)c(C(=O)O)cn1c23` [LEVOFLOXACIN ANHYDROUS], which MIC (Escherichia coli [8]) is on record?
**A.** The MIC was 0.47 µg/mL (≈ 1.3 µM).

**Q.** And the MIC (Staphylococcus aureus [1])?
**A.** The MIC was 0.66 µg/mL (≈ 1.83 µM).

**Q.** What about the MIC (Enterococcus faecalis) of the same compound?
**A.** Its MIC is 0.72 µg/mL (≈ 1.99 µM).

**Q.** What about the MIC (Escherichia coli [3]) of the same compound?
**A.** Its MIC is 0.47 µg/mL (≈ 1.3 µM).

**Q.** Which results are given for `CCn1cc(C(=O)O)c(=O)c2cnc(N3CCNCC3)nc21` [PIPEMIDIC ACID]?
**A.** MIC (Escherichia coli [20]): 19.5 µg/mL (≈ 64.3 µM); MIC (Staphylococcus aureus [21]): 19.5 µg/mL (≈ 64.3 µM)
